Measured values reported in patent US12171230B2, “Herbicidal compositions” (Bayer Aktiengesellschaft, priority 2018, dated 2024).
Where “and” joins values, the source holds several entries; their conditions need not be identical. Equal values may be shown once.

Tests used:
Type in all cases: in vivo
[1] = tested on: Lolium rigidum (resistant biotype); experiment: Post-emergence herbicidal action against Lolium rigidum (resistant biotype)
Bromus sterilis [2] = experiment: Post-emergence herbicidal action against Bromus sterilis; settings: 14 DAT; 1 g a.i./ha
Viola arvensis = experiment: Post-emergence herbicidal action against Viola arvensis; settings: 100 g of a.i./ha
Experimental: (§1) When the observed efficacies exceed the formal sum total of the values of the tests with individual applications, they also exceed the expected value according to Colby, which is calculated using the formula below and is likewise regarded as an indication of synergism (cf. S. R. Colby; in Weeds 15 (1967) p. 20 to 22): E^C=A+B−([…])
(§2) Here: • A=efficacy of the active compound (A) in % at an application rate of a g a.i./ha; • B=efficacy of the active compound (B) in % at an application rate of b g a.i./ha; • E^C=expected value of the effect of the combination (A)+(B) in % at the combined application rate a+b g a.i./ha.
(§3) Seeds or rhizome pieces of mono- and dicotyledonous weeds are placed in sandy loam in pots, covered with soil and grown in a greenhouse under good growth conditions (temperature, air humidity, water supply). Three weeks after sowing, the test plants were treated at the three-leaf stage with the compositions according to the invention. The compositions according to the invention formulated as spray powders or as emulsion concentrates were sprayed onto the green plant parts in various dosages with an application rate of 300 to 800 l/ha of water (equivalent). […] The compositions according to the invention also have good post-emergence herbicidal activity against a broad spectrum of economically important gramineous and broadleaf weeds.

Brachiaria platyphylla = experiment: Post-emergence herbicidal action against Brachiaria platyphylla
In short: (§4)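 Seeds or rhizome pieces were grown in sandy loam in pots in a greenhouse, and plants were sprayed at the three-leaf stage, three weeks after sowing. Spray powders or emulsion concentrates were applied in various dosages at 300 to 800 l/ha water. Efficacy was scored visually after 3 to 4 weeks against untreated controls.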

Lolium rigidum [3] = experiment: Post-emergence herbicidal action against Lolium rigidum
Ipomoea ssp. = experiment: Post-emergence herbicidal action against Ipomoea ssp.; settings: 45 DAT
Centaurea cyano = experiment: Post-emergence herbicidal action against Centaurea cyano
In short: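 Greenhouse pot-grown plants sprayed post-emergence at the three-leaf stage, three weeks after sowing, with spray-powder or emulsion-concentrate formulations at various dosages in 300 to 800 l/ha water on green parts.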

Alopecurus myosuroides = experiment: Post-emergence herbicidal action against Alopecurus myosuroides
Phalaris minor [4] = experiment: Post-emergence herbicidal action against Phalaris minor
Bromus sterilis [5] = experiment: Post-emergence herbicidal action against Bromus sterilis; settings: 1 g of a.i./ha
Veronica hederifolia = experiment: Post-emergence herbicidal action against Veronica hederifolia
Viola tricolor = experiment: Post-emergence herbicidal action against Viola tricolor
Phalaris minor [6] = experiment: Post-emergence herbicidal action against Phalaris minor; remark: listed apart in the source
Pharbitis purpurea = experiment: Post-emergence herbicidal action against Pharbitis purpurea; settings: for Herbicidal action 21 DAT [%] against Pharbitis purpurea: post-emergence
In short: as §4

Ranunculus repens = experiment: Post-emergence herbicidal action against Ranunculus repens; settings: 100 g of a.i./ha
Experimental: as §1, §2, §3

Lolium rigidum [7] = experiment: Post-emergence herbicidal action against Lolium rigidum; remark: listed apart in the source
Eleusine indica = experiment: Post-emergence herbicidal action against Eleusine indica; settings: (Z3) post-emergence, g of a.i./ha: 270, 90, 15, 5, 5 + 270, 15 + 90
Description: The following abbreviations are used in the description and the tables that follow: • g of a.i./ha=grams of active substance (active ingredient) (=100% active compound) per hectare; • The sum total of the effects of the individual applications is reported under E^A; • expected values according to Colby are each reported under E^C.
The rating period is reported in days after application (DAT).

## C=C[C@]1(C(=O)N[C@H]2CO[C@@H](C(=O)OC)C2)CC(c2cc(F)cc(F)c2)=NO1 (relative stereo) [Compound A3, methyl rel-(2R,4R)-4-[[(5S)-3-(3,5-difluorophenyl)-5-vinyl-4H-isoxazole-5-carbonyl]amino]tetrahydrofuran-2-carboxylate]
[1]; 1 g of a.i./ha
  Herbicidal action in [%] 14 DAT against Lolium rigidum (resistant biotype): 15% and 30%
  Herbicidal action in [%] 28 DAT against Lolium rigidum (resistant biotype): 0%
[1]; 4 g of a.i./ha
  Herbicidal action in [%] 14 DAT against Lolium rigidum (resistant biotype): 40% and 60%
Bromus sterilis [2]
  Herbicidal action: 30%
Viola arvensis
  Herbicidal action 43 DAT [%] against Viola arvensis: 50%
Brachiaria platyphylla; 1.7 g of a.i./ha
  Herbicidal action 21 DAT [%] against Brachiaria platyphylla: 20%
  Herbicidal action 21 DAT against Brachiaria platyphylla: 20%
Brachiaria platyphylla; 1.7 g of a.i./ha, post-emergence, block with (B1.14) Tembotrione
  Herbicidal action 21 DAT [%] against Brachiaria platyphylla: 20%
Brachiaria platyphylla; 1.7 g of a.i./ha, post-emergence, block with (B9.10) Saflufenacil
  Herbicidal action 21 DAT [%] against Brachiaria platyphylla: 20%
Brachiaria platyphylla; 5 g of a.i./ha
  Herbicidal action 21 DAT [%] against Brachiaria platyphylla: 80%
Lolium rigidum [3]; 14 DAT, 1 g of a.i./ha
  Herbicidal action against Lolium rigidum: 35%
Lolium rigidum [3]; 28 DAT, 1 g of a.i./ha
  Herbicidal action against Lolium rigidum: 15%
Lolium rigidum [3]; 28 DAT, 4 g of a.i./ha
  Herbicidal action against Lolium rigidum: 50%
Ipomoea ssp.; 50 g a.i./ha
  Herbicidal action: 40%
Ipomoea ssp.; 100 g a.i./ha
  Herbicidal action: 50%
Centaurea cyano; 1 g of a.i./ha
  Herbicidal action 14 DAT against Centaurea cyanus: 20%
  Herbicidal action 28 DAT against Centaurea cyanus: 10% and 0%
  Herbicidal action in [%] 14 DAT against Centaurea cyanus: 30%
  Herbicidal action in [%] 28 DAT against Centaurea cyanus: 10%
Centaurea cyano; 4 g of a.i./ha
  Herbicidal action 14 DAT against Centaurea cyanus: 50%
  Herbicidal action 28 DAT against Centaurea cyanus: 20%
  Herbicidal action in [%] 14 DAT against Centaurea cyanus: 50%
  Herbicidal action in [%] 28 DAT against Centaurea cyanus: 50%
Centaurea cyano; 14 DAT, 16 g of a.i./ha
  Herbicidal action against Centaurea cyanus: 80%
Centaurea cyano; 16 g of a.i./ha
  Herbicidal action in [%] 14 DAT against Centaurea cyanus: 70%
  Herbicidal action in [%] 28 DAT against Centaurea cyanus: 40% and 70%
Centaurea cyano; 16 g of a.i./ha, post-emergence
  Herbicidal action in [%] 28 DAT against Centaurea cyano: 70%
Centaurea cyano; 28 DAT, 16 g of a.i./ha
  Herbicidal action against Centaurea cyanus: 40%
Centaurea cyano; (Z61) post-emergence, g of a.i./ha: 1, 270, 90, 1 + 270, 1 + 90
  Herbicidal action 28 DAT against Centaurea cyanus: 0%
Alopecurus myosuroides; 1 g of a.i./ha
  Herbicidal action in [%] 14 DAT against Alopecurus myosuroides: 15% and 30%
  Herbicidal action in [%] 28 DAT against Alopecurus myosuroides: 15% and 10%
Alopecurus myosuroides; 1 g of a.i./ha, second 14 DAT block
  Herbicidal action in [%] 14 DAT against Alopecurus myosuroides: 35%
Alopecurus myosuroides; 4 g of a.i./ha
  Herbicidal action in [%] 14 DAT against Alopecurus myosuroides: 90% and 75%
  Herbicidal action in [%] 28 DAT against Alopecurus myosuroides: 50% and 60%
Alopecurus myosuroides; 16 g of a.i./ha
  Herbicidal action in [%] 28 DAT against Alopecurus myosuroides: 90%
Phalaris minor [4]; 14 DAT, 1 g of a.i./ha
  Herbicidal action against Phalaris minor: 10%
Phalaris minor [4]; 14 DAT, 4 g of a.i./ha
  Herbicidal action against Phalaris minor: 90%
Phalaris minor [4]; 14 DAT, 16 g of a.i./ha
  Herbicidal action against Phalaris minor: 85%
Phalaris minor [4]; 28 DAT, 1 g of a.i./ha
  Herbicidal action against Phalaris minor: 0%
Phalaris minor [4]; 28 DAT, 4 g of a.i./ha
  Herbicidal action against Phalaris minor: 70%
Phalaris minor [4]; 28 DAT, 16 g of a.i./ha
  Herbicidal action against Phalaris minor: 40%
Bromus sterilis [5]
  Herbicidal action in [%] 14 DAT against Bromus sterilis: 15% and 30%
  Herbicidal action in [%] 28 DAT against Bromus sterilis: 15%
Veronica hederifolia; 14 DAT, 1 g of a.i./ha
  Herbicidal action against Veronica hederifolia: 30%
Veronica hederifolia; 14 DAT, 16 g of a.i./ha
  Herbicidal action against Veronica hederifolia: 40%
Veronica hederifolia; 28 DAT, 16 g of a.i./ha
  Herbicidal action against Veronica hederifolia: 50%
Viola tricolor; 14 DAT, 1 g of a.i./ha
  Herbicidal action against Viola tricolor: 50%
Viola tricolor; 14 DAT, 16 g of a.i./ha
  Herbicidal action against Viola tricolor: 85%
Viola tricolor; 28 DAT, 1 g of a.i./ha
  Herbicidal action against Viola tricolor: 15%
Viola tricolor; 28 DAT, 16 g of a.i./ha
  Herbicidal action against Viola tricolor: 20%
Phalaris minor [6]; 14 DAT, 1 g a.i./ha
  Herbicidal action: 20%
Phalaris minor [6]; 14 DAT, 4 g a.i./ha
  Herbicidal action: 85%
Phalaris minor [6]; 14 DAT, 16 g a.i./ha
  Herbicidal action: 85%
Phalaris minor [6]; 28 DAT, 1 g a.i./ha
  Herbicidal action: 10%
Phalaris minor [6]; 28 DAT, 4 g a.i./ha
  Herbicidal action: 85%
Phalaris minor [6]; 28 DAT, 16 g a.i./ha
  Herbicidal action: 85%
Pharbitis purpurea; 5 g of a.i./ha
  Herbicidal action 21 DAT against Pharbitis purpurea: 80%
  Herbicidal action 21 DAT [%] against Pharbitis purpurea: 80%
Pharbitis purpurea; 21 DAT, 5 g of a.i./ha
  Herbicidal action 21 DAT [%] against Pharbitis purpurea: 85%
Pharbitis purpurea; 21 DAT, 15 g of a.i./ha
  Herbicidal action 21 DAT [%] against Pharbitis purpurea: 85%
Ranunculus repens
  Herbicidal action 43 DAT [%] against Ranunculus repens: 82%
Lolium rigidum [7]; 14 DAT, 1 g a.i./ha
  Herbicidal action: 40%
Lolium rigidum [7]; 28 DAT, 1 g a.i./ha
  Herbicidal action: 10%
Lolium rigidum [7]; 28 DAT, 4 g a.i./ha
  Herbicidal action: 70%

## O=C(Nc1ccc(F)cc1F)c1cccnc1Oc1cccc(C(F)(F)F)c1 [(B2.18) Diflufenican]
Eleusine indica; 90 g of a.i./ha
  Herbicidal action 21 DAT against Eleusine indica: 20%
Eleusine indica; 270 g of a.i./ha
  Herbicidal action 21 DAT against Eleusine indica: 30%
